What was measured:
Assay type in all cases: cell-based
HEK293 [1] = test: Selectivity ratio of IC50 for PGD2 receptor in human platelets to IC50 for human EP1 receptor expressed in HEK293 cells by cAMP accumulation assay
HEK293 [2] = test: Selectivity ratio of IC50 for PGD2 receptor in human platelets to IC50 for human EP2 receptor expressed in HEK293 cells by cAMP accumulation assay
HEK293 [3] = test: Selectivity ratio of IC50 for PGD2 receptor in human platelets to IC50 for human EP3 receptor expressed in HEK293 cells by cAMP accumulation assay
HEK293 [4] = test: Selectivity ratio of IC50 for PGD2 receptor in human platelets to IC50 for human EP4 receptor expressed in HEK293 cells by cAMP accumulation assay
HEK293 [5] = test: Selectivity ratio of IC50 for PGD2 receptor in human platelets to IC50 for human FP receptor expressed in HEK293 cells by cAMP accumulation assay
HEK293 [6] = test: Selectivity ratio of IC50 for PGD2 receptor in human platelets to IC50 for human TP receptor expressed in HEK293 cells by cAMP accumulation assay
HEK293 [7] = test: Selectivity ratio of IC50 for PGD2 receptor in human platelets to IC50 for human IP receptor expressed in HEK293 cells by cAMP accumulation assay

Measured: Ratio IC50

CC(C)Oc1ccc(S(=O)(=O)N2CC=C(c3ccc(Cl)c(OCC(=O)O)c3)CC2)cc1
> 20: HEK293 [1] | HEK293 [2] | HEK293 [3] | HEK293 [4] | HEK293 [5] | HEK293 [6] | HEK293 [7]

CC(C)Oc1ccc(S(=O)(=O)N2CCC(Oc3ccc(F)cc3CCC(=O)O)CC2)cc1
> 20: HEK293 [1] | HEK293 [2] | HEK293 [3] | HEK293 [4] | HEK293 [5] | HEK293 [6] | HEK293 [7]

CC(=O)c1ccc(N2CCN(S(=O)(=O)c3ccc(OC(C)C)cc3)CC2)cc1OCC(=O)O
> 20: HEK293 [1] | HEK293 [2] | HEK293 [3] | HEK293 [4] | HEK293 [5] | HEK293 [6] | HEK293 [7]

CC(C)Oc1ccc(S(=O)(=O)N2CCN(c3ccc(-c4ccccc4)c(OCC(=O)O)c3)CC2)cc1
> 20: HEK293 [1] | HEK293 [2] | HEK293 [3] | HEK293 [4] | HEK293 [5] | HEK293 [6] | HEK293 [7]

Cc1nnc(-c2ccc(N3CCN(S(=O)(=O)c4ccc(OC(C)C)cc4)CC3)cc2OCC(=O)O)s1
> 20: HEK293 [1] | HEK293 [2] | HEK293 [3] | HEK293 [4] | HEK293 [5] | HEK293 [6] | HEK293 [7]

CC(C)Oc1ccc(S(=O)(=O)N2CCN(c3cc(OCC(=O)O)cc(-c4cccs4)c3)CC2)cc1
> 20: HEK293 [1] | HEK293 [2] | HEK293 [3] | HEK293 [4] | HEK293 [5] | HEK293 [6] | HEK293 [7]

CC(C)Oc1ccc(S(=O)(=O)N2CCN(c3ccc(NC(=O)c4cccnc4)c(OCC(=O)O)c3)CC2)cc1
> 20: HEK293 [1] | HEK293 [2] | HEK293 [3] | HEK293 [4] | HEK293 [5] | HEK293 [6] | HEK293 [7]

COC(=O)Nc1ccc(N2CCN(S(=O)(=O)c3ccc(OC(C)C)cc3)CC2)cc1OCC(=O)O
> 20: HEK293 [1] | HEK293 [2] | HEK293 [3] | HEK293 [4] | HEK293 [5] | HEK293 [6] | HEK293 [7]

CC(C)Oc1ccc(S(=O)(=O)N2CCN(c3ccc(C(=O)NCc4ccco4)c(OCC(=O)O)c3)CC2)cc1
> 20: HEK293 [1] | HEK293 [2] | HEK293 [3] | HEK293 [4] | HEK293 [5] | HEK293 [6] | HEK293 [7]

COc1cccc(OC2CCN(S(=O)(=O)c3ccc(OC(C)C)cc3)CC2)c1CCC(=O)O
> 20: HEK293 [1] | HEK293 [2] | HEK293 [3] | HEK293 [4] | HEK293 [5] | HEK293 [6] | HEK293 [7]

CC(C)Oc1ccc(S(=O)(=O)N2CCN(c3ccc(Br)c(OCC(=O)O)c3)CC2)cc1
> 20: HEK293 [1] | HEK293 [2] | HEK293 [3] | HEK293 [4] | HEK293 [5] | HEK293 [6] | HEK293 [7]

CC(C)Oc1ccc(S(=O)(=O)N2CCC(Oc3ccccc3CCC(=O)O)CC2)cc1
> 20: HEK293 [1] | HEK293 [2] | HEK293 [3] | HEK293 [4] | HEK293 [5] | HEK293 [6] | HEK293 [7]

CC(C)Oc1ccc(S(=O)(=O)N2CCC(Oc3ccccc3/C=C/C(=O)O)CC2)cc1
> 20: HEK293 [1] | HEK293 [2] | HEK293 [3] | HEK293 [4] | HEK293 [5] | HEK293 [6] | HEK293 [7]

CC(C)Oc1ccc(S(=O)(=O)N2CCN(c3ccc(Cl)c(CC(=O)O)c3)CC2)cc1
> 20: HEK293 [1] | HEK293 [2] | HEK293 [3] | HEK293 [4] | HEK293 [5] | HEK293 [6] | HEK293 [7]

CC(C)Oc1ccc(S(=O)(=O)N2CCN(c3ccc(NC(=O)c4ccccc4)c(OCC(=O)O)c3)CC2)cc1
> 20: HEK293 [1] | HEK293 [2] | HEK293 [3] | HEK293 [4] | HEK293 [5] | HEK293 [6] | HEK293 [7]

Cc1cc(OCC(=O)O)cc(N2CCN(S(=O)(=O)c3ccc(OC(C)C)cc3)CC2)c1
> 20: HEK293 [1] | HEK293 [2] | HEK293 [3] | HEK293 [4] | HEK293 [5] | HEK293 [6] | HEK293 [7]

CC(C)Oc1ccc(S(=O)(=O)N2CCN(c3ccc(-c4ncco4)c(OCC(=O)O)c3)CC2)cn1
> 20: HEK293 [1] | HEK293 [2] | HEK293 [3] | HEK293 [4] | HEK293 [5] | HEK293 [6] | HEK293 [7]

CC(C)Oc1ccc(S(=O)(=O)N2CCN(c3cc(F)c(F)c(OCC(=O)O)c3)CC2)cc1
> 20: HEK293 [1] | HEK293 [2] | HEK293 [3] | HEK293 [4] | HEK293 [5] | HEK293 [6] | HEK293 [7]

CC(C)Oc1ccc(S(=O)(=O)N2CCN(c3ccc(-c4cocn4)c(OCC(=O)O)c3)CC2)cc1
> 20: HEK293 [1] | HEK293 [2] | HEK293 [3] | HEK293 [4] | HEK293 [5] | HEK293 [6] | HEK293 [7]

CC(C)Oc1ccc(S(=O)(=O)N2CCN(c3ccc(OCc4ccoc4)c(OCC(=O)O)c3)CC2)cc1
> 20: HEK293 [1] | HEK293 [2] | HEK293 [3] | HEK293 [4] | HEK293 [5] | HEK293 [6] | HEK293 [7]

CC(C)Oc1ccc(S(=O)(=O)N2CCN(c3ccc(Cl)c(/C=C/C(=O)O)c3)CC2)cc1
> 20: HEK293 [1] | HEK293 [2] | HEK293 [3] | HEK293 [4] | HEK293 [5] | HEK293 [6] | HEK293 [7]

CC(C)Oc1ccc(S(=O)(=O)N2CCN(c3ccc(C(=O)Nc4nc5ccccc5[nH]4)c(OCC(=O)O)c3)CC2)cc1
> 20: HEK293 [1] | HEK293 [2] | HEK293 [3] | HEK293 [4] | HEK293 [5] | HEK293 [6] | HEK293 [7]

CC(C)Oc1ccc(S(=O)(=O)N2CCN(c3ccc(C(=O)NCc4cccs4)c(OCC(=O)O)c3)CC2)cc1
> 20: HEK293 [1] | HEK293 [2] | HEK293 [3] | HEK293 [4] | HEK293 [5] | HEK293 [6] | HEK293 [7]

CC(C)Oc1ccc(S(=O)(=O)N2CCN(c3ccc(NC(=O)c4ccco4)c(OCC(=O)O)c3)CC2)cc1
> 20: HEK293 [1] | HEK293 [2] | HEK293 [3] | HEK293 [4] | HEK293 [5] | HEK293 [6] | HEK293 [7]

CC(C)Oc1ccc(S(=O)(=O)N2CCN(c3ccc(-c4nncs4)c(OCC(=O)O)c3)CC2)cc1
> 20: HEK293 [1] | HEK293 [2] | HEK293 [3] | HEK293 [4] | HEK293 [5] | HEK293 [6] | HEK293 [7]

From ChEMBL document CHEMBL3880428, “Sulfonamide derivative having PGD2 receptor antagonistic activity” (2012)
